According to ChEMBL document CHEMBL1201862, “PubChem BioAssay data set” (2004):
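Growth conditions: 96-well plates. Treatment: test compound, 48 hours, 5 concentrations. Analysis: linear interpolation between bracketing concentrations; unreached endpoints set to highest concentration. GI50 is the concentration that inhibits growth by half.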 The source made the active and inactive calls. Cut-off read from the data, not from the text of the source: active = GI50 up to about 1.1 µM and inactive = higher.

Columns and labels:
Test in all cases: NCI anticancer screen, dose series, 48 h
DU-145 = test system: DU-145
786-0 = test system: 786-0
NCI-H460 = test system: NCI-H460
SN12C = test system: SN12C
HOP-92 = test system: HOP-92
EKVX = test system: EKVX
UACC-62 = test system: UACC-62
OVCAR-5 = test system: OVCAR-5
HT-29 = test system: HT-29
HCC 2998 = test system: HCC 2998
NCI-H226 = test system: NCI-H226
M14 = test system: M14
MDA-MB-231 = test system: MDA-MB-231
SF-295 = test system: SF-295
SK-OV-3 = test system: SK-OV-3
UO-31 = test system: UO-31
HCT-116 = test system: HCT-116

Measured: GI50

C1C2CC3CC1CC(c1nn4c(C56CC7CC(CC(C7)C5)C6)nnc4s1)(C2)C3
inactive: DU-145 > 100 µM | 786-0 > 100 µM | NCI-H460 > 100 µM | SN12C > 100 µM | HOP-92 > 100 µM | EKVX > 100 µM | UACC-62 > 100 µM | OVCAR-5 > 100 µM | HT-29 > 100 µM | HCC 2998 > 100 µM | NCI-H226 > 100 µM | M14 > 100 µM | MDA-MB-231 > 100 µM | SF-295 > 100 µM | SK-OV-3 > 100 µM | UO-31 > 100 µM | HCT-116 > 100 µM

Cc1ccc(S(=O)(=O)N2CCNCCN(S(=O)(=O)c3ccc(C)cc3)CCNCC2)cc1
inactive: DU-145 19.5 µM | 786-0 18.7 µM | NCI-H460 14.7 µM | SN12C 29.6 µM | HOP-92 18.7 µM | EKVX 24 µM | UACC-62 18.8 µM | OVCAR-5 43.4 µM | HT-29 14.1 µM | HCC 2998 15.7 µM | NCI-H226 19.3 µM | M14 18.1 µM | MDA-MB-231 23.7 µM | SF-295 15.8 µM | SK-OV-3 20.4 µM | UO-31 19.8 µM | HCT-116 15 µM

COC1OC(C)/C(=N/O)C2OC(C)(C)OC12 (stereo not drawn)
inactive: DU-145 > 100 µM | 786-0 > 100 µM | NCI-H460 > 100 µM | SN12C > 100 µM | HOP-92 > 100 µM | EKVX > 100 µM | UACC-62 > 100 µM | OVCAR-5 > 100 µM | HT-29 > 100 µM | HCC 2998 > 100 µM | NCI-H226 > 100 µM | M14 > 100 µM | MDA-MB-231 > 100 µM | SF-295 > 100 µM | SK-OV-3 > 100 µM | UO-31 > 100 µM | HCT-116 > 100 µM

Cc1ccc(/N=C2N=C(Cl)/C(=C\c3ccccc3)N\2)cc1
inactive: DU-145 64.6 µM | 786-0 > 100 µM | NCI-H460 78 µM | SN12C > 100 µM | HOP-92 > 100 µM | EKVX > 100 µM | UACC-62 4.26 µM | OVCAR-5 > 100 µM | HT-29 > 100 µM | HCC 2998 12.2 µM | NCI-H226 > 100 µM | M14 > 100 µM | MDA-MB-231 > 100 µM | SF-295 > 79.3 µM | SK-OV-3 > 100 µM | UO-31 79.1 µM | HCT-116 > 100 µM
